Data as given in patent US8741884B2, “Compounds for the treatment of hepatitis C” (priority 2010, dated 2014).
Read-outs that look alike come from different tables or passages of the source.

System: HCV pseudoparticles (genotype 1a HCV E1 and E2 envelope, H77C isolate)
Test: microbe, parasite or virus in culture
Type: cell-based
[1] = Hepatitis C virus, Huh-7, 48 h, class symbol, HCV pseudoparticles genotype 1a (H77C), Huh7 cells, luciferase 2 days after infection, average of duplicates
[2] = Hepatitis C virus, Huh-7, 48 h, numeric value, HCV pseudoparticles genotype 1a (H77C), Huh7 cells, luciferase 2 days after infection, average of duplicates

## O=C(NC(C(=O)O)C1CCCNC1)c1ccc2cc1OCCOCCOCCOc1ccc(cc1)CNc1nc(nc(OCC(F)(F)F)n1)N2 (stereo not shown) [Example 1606]
[1]
  EC50: 0.1 to 100 nM

## O=C(O)CC1CCN(C(=O)c2ccc3cc2OCCCCCCCCOc2ccc(cc2)CNc2nc(nc(OCC(F)(F)F)n2)N3)C1 (stereo not shown) [Example 1132]
[1]
  EC50: 1000 to 50000 nM

## CC(C)(C)OC(=O)N1CCC(CNC(=O)c2ccc3cc2OCCCCCCCCOc2ccc(cc2)CNc2nc(nc(OCC(F)(F)F)n2)N3)C1 (stereo not shown) [Example 1105]
[1]
  EC50: 0.1 to 100 nM
[2]
  EC50: 49.1 nM

## N=C(N)NCCC[C@H](NC(=O)c1ccc2cc1OCCCCCCOc1ccc(cc1)CNc1nc(nc(OCC(F)(F)F)n1)N2)C(N)=O [Example 1313]
[1]
  EC50: 0.1 to 100 nM

## CCCCN1CCCOc2ccc(cc2)CNc2nc(nc(OCC(F)(F)F)n2)Nc2ccc(C(=O)NCC3(CN4CCCC4)CC3)c(c2)OCCC1 [Example 3014]
[1]
  EC50: 0.1 to 100 nM

## O=C(NCC1(CN2CCCC2)CC1)c1ccc2cc1OCCCNCCCOc1cccc(c1)CNc1nc(nc(OCC(F)(F)F)n1)N2 [Example 3025]
[1]
  EC50: 0.1 to 100 nM

## CNC(=O)N1CCCOc2ccc(cc2)CNc2nc(nc(OCC(F)(F)F)n2)Nc2ccc(C(=O)NCC3(CN4CCCC4)CC3)c(c2)OCCC1 [Example 3007]
[1]
  EC50: 0.1 to 100 nM

## COC(=O)CCCNC(=O)c1ccc2cc1OCCCCCCCCOc1ccc(cc1)CNc1nc(nc(OCC(F)(F)F)n1)N2 [Example 1101]
[1]
  EC50: 0.1 to 100 nM

## CCOC(=O)[C@H]1CN(C(=O)OC(C)(C)C)C[C@H]1NC(=O)c1ccc2cc1OCCCCCCOc1ccc(cc1)CNc1nc(nc(OCC(F)(F)F)n1)N2 [Example 1320]
[1]
  EC50: 0.1 to 100 nM

## COC(=O)CCNC(=O)c1ccc2cc1OCCCCCCCCOc1ccc(cc1)CNc1nc(nc(OCC(F)(F)F)n1)N2 [Example 1017]
[1]
  EC50: 100 to 1000 nM

## NC(=O)C(Cc1ccccc1)NC(=O)c1ccc2cc1OCCCCCCOc1ccc(cc1)CNc1nc(nc(OCC(F)(F)F)n1)N2 (stereo not shown) [Example 1319]
[1]
  EC50: 0.1 to 100 nM

## CC(C)(C)OC(=O)N1CCCOc2cccc(c2)CNc2nc(nc(OCC(F)(F)F)n2)Nc2ccc(C(=O)NCC3(CN4CCCC4)CC3)c(c2)OCCC1 [Example 3024]
[1]
  EC50: 100 to 1000 nM

## O=C(O)c1ccc2cc1OCCCCOC[C@H](c1ccccc1)Nc1nc(nc(OCC(F)(F)F)n1)N2 [Example 1004]
read-out: EC50
  EC50: 1000 to 50000 nM

## COC(=O)[C@H](CCNC(=O)OC(C)(C)C)NC(=O)c1ccc2cc1OCCCCCCOc1ccc(cc1)CNc1nc(nc(OCC(F)(F)F)n1)N2 [Example 1307]
[1]
  EC50: 0.1 to 100 nM

## CC(=O)N1CCCCOc2cc(ccc2C(=O)NCC2(CN3CCCC3)CC2)Nc2nc(nc(OCC(F)(F)F)n2)NCc2ccc(cc2)OCCC1 [Example 3022]
[1]
  EC50: 0.1 to 100 nM

## COC(=O)c1ccc2cc1OCCCCNCCCOc1ccc(cc1)CNc1nc(nc(OCC(F)(F)F)n1)N2 [Example 3015]
[1]
  EC50: 0.1 to 100 nM

## COC(=O)[C@@H](CNC(=O)OC(C)(C)C)NC(=O)c1ccc2cc1OCCCCCCOc1ccc(cc1)CNc1nc(nc(OCC(F)(F)F)n1)N2 [Example 1309]
[1]
  EC50: 100 to 1000 nM

## CN(C)CC(C)(C)CNC(=O)c1ccc2cc1OCCCCCCOc1cccc(c1)CNc1nc(nc(OCC(F)(F)F)n1)N2 [Example 1804]
[1]
  EC50: 100 to 1000 nM
[2]
  EC50: 239 nM

## COC(=O)c1ccc2cc1OCCCC=CCCCOc1ccc(cc1)CNc1nc(nc(OCC(F)(F)F)n1)N2 [Example 1019]
read-out: EC50
  EC50: 100 to 1000 nM

## CN(C)CC(C)(C)CNC(=O)c1ccc2cc1OCCCCCCOc1ccccc1CNc1nc(nc(OCC(F)(F)F)n1)N2 [Example 1806]
[1]
  EC50: 100 to 1000 nM

## C=C1COc2ccc(cc2)CNc2nc(nc(OCC(F)(F)F)n2)Nc2ccc(C(=O)NCC3(CN4CCCC4)CC3)c(c2)OC1 [Example 1006]
[1]
  EC50: 1000 to 50000 nM

## COC(=O)c1ccc2cc1OCCCCOC[C@H](c1ccccc1)Nc1nc(nc(OCC(F)(F)F)n1)N2 [Example 1003]
read-out: EC50
  EC50: 1000 to 50000 nM

## O=C(CNC(=O)c1ccc2cc1OCCCCCCCCOc1ccc(cc1)CNc1nc(nc(OCC(F)(F)F)n1)N2)NS(=O)(=O)C1CC1 [Example 1133]
[1]
  EC50: 100 to 1000 nM

## COC(=O)c1ccc2cc1OCCCCOc1cccc(c1)CNc1nc(nc(OCC(F)(F)F)n1)N2 [Example 1801]
[1]
  EC50: 100 to 1000 nM

## CCOC(=O)[C@@H]1CN(C(=O)OC(C)(C)C)C[C@H]1NC(=O)c1ccc2cc1OCCCCCCOc1ccc(cc1)CNc1nc(nc(OCC(F)(F)F)n1)N2 [Example 1308]
[1]
  EC50: 0.1 to 100 nM

## CC(C)(C)OC(=O)NC[C@@H](NC(=O)c1ccc2cc1OCCCCCCOc1ccc(cc1)CNc1nc(nc(OCC(F)(F)F)n1)N2)C(=O)O [Example 1556]
[1]
  EC50: 100 to 1000 nM
[2]
  EC50: 101 nM

## CC(C)(C)OC(=O)N1CCCC(C(NC(=O)c2ccc3cc2OCCOCCOCCOc2ccc(cc2)CNc2nc(nc(OCC(F)(F)F)n2)N3)C(=O)O)C1 (stereo not shown) [Example 1605]
[1]
  EC50: 0.1 to 100 nM
[2]
  EC50: 23 nM

## O=C(O)CCCCNC(=O)c1ccc2cc1OCCCCCCOc1ccc(cc1)CNc1nc(nc(OCC(F)(F)F)n1)N2 [Example 1408]
[1]
  EC50: 0.1 to 100 nM

## NC[C@H](NC(=O)c1ccc2cc1OCCCCCCOc1ccc(cc1)CNc1nc(nc(OCC(F)(F)F)n1)N2)C(=O)O [Example 1559]
read-out: EC50
  EC50: 0.1 to 100 nM

## CC(C)(C)OC(=O)NCC[C@H](NC(=O)c1ccc2cc1OCCCCCCOc1ccc(cc1)CNc1nc(nc(OCC(F)(F)F)n1)N2)C(=O)O [Example 1561]
[1]
  EC50: 0.1 to 100 nM

## O=C1COCC(=O)NCc2cccc(c2)Nc2nc(nc(OCC(F)(F)F)n2)NCCN1 [Example 1015]
[1]
  EC50: 1000 to 50000 nM
[2]
  EC50: 3060 nM

## CC(=O)NC[C@H](NC(=O)c1ccc2cc1OCCCCCCOc1ccc(cc1)CNc1nc(nc(OCC(F)(F)F)n1)N2)C(=O)O [Example 1711]
[1]
  EC50: 0.1 to 100 nM
